The subject of the assay is INS-1E cytokine-induced caspase-3/7, Caspase-Glo luminescence, 48 h. The assay can be described thus: suppression of cytokine-driven beta-cell apoptosis – INS-1E rat cells, luminescence, orthogonal assay for beta-cell apoptosis protection project, dose response (AID 463206).

From PubChem BioAssay AID463206 (Broad Institute, 2010) come the findings set out here.

Molecules are shown by their SMILES. Active and inactive are the calls of the source.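 How the source made its calls: active means caspase luminescence falls with dose and the half-maximal concentration AC50 from the fitted curve is at or below a set limit; inconclusive means flat fit at 30 to 70% signal loss, or invalid fit; inactive means AC50 above the limit, or signal rises instead.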 A value given as a limit tells only on which side of the number the result lay.

Regarding `Cc1cccc2sc(NNC(=O)c3ccc(S(=O)(=O)N4CC(C)CC(C)C4)cc3)nc12` (stereo not given), the AC50 (as a rule, the concentration at which the activity in the assay is half-maximal) was > 26 µM (inactive). The value for `CCCCC(=O)NC(c1ccc(N(CC)CC)cc1)c1ccc2cccnc2c1O` (stereo not given) was > 26 µM (inactive). Next, `CC(C)CN(C(=O)COC(=O)C12CC3CC(CC(C3)C1)C2)c1c(N)n(Cc2ccccc2)c(=O)[nH]c1=O`: > 26 µM (inactive); `CCOc1cc(C)c(S(=O)(=O)Nc2ccc3cn[nH]c3c2)cc1C`: > 12 µM (inactive).

As to `CCN(CC)c1ccc(/C=N/NC(=O)CCC(=O)NCc2ccccc2)c(O)c1`, the AC50 was > 26 µM (inactive). Take `COc1ccc(-n2c(-c3ccc(Cl)cc3)c[n+]3c2CCCCC3)cc1`: the AC50 is > 26 µM (inactive). For `Cc1cccc(N2C(=S)N=C(Nc3c(C)cccc3C)C23CCOC(C)(C)C3)c1` (stereo not given), the AC50 was > 26 µM (inactive). The value for `Cc1cc(C)nc(-n2nc(C)cc2Nc2ccccc2)n1` was > 26 µM (inactive). The value for `Cn1nnnc1N=N/C(=N/Nc1ccccc1)c1ccccc1` was > 12 µM (inactive); that for `O=[N+]([O-])c1ccc(S(=O)(=O)c2ccccc2)nc1` was > 26 µM (inactive). Next, `Cc1ccc(O)c(NC(=S)NC(=O)c2ccc(-c3ccc(Cl)cc3)o2)c1`: > 26 µM (inactive); `CSc1ccccc1OCc1cc(C(=O)N2CCc3c(Cl)cccc3C2)no1`: > 26 µM (inactive); `O=C(CN1C(=O)c2ccccc2S1(=O)=O)c1ccc(F)cc1`: > 26 µM (inactive).

`CCOC(=O)/C(=C\c1ccc(OC(F)F)cc1)C1=Nn2c(nnc2-c2ccc(Cl)cc2)SC1`: the AC50 is > 26 µM (inactive). For the compound `COc1ccc(CCNc2ncnc3c2oc2ccccc23)cc1OC`, the AC50 is > 26 µM (inactive). Regarding `CCOC(=O)C(C)/C(C)=N/NC(=O)c1cc2ccccc2cc1O` (stereo not given), the AC50 was > 26 µM (inactive). `COc1ccccc1OCCCCOc1ccccc1C(C)=O`: the AC50 is > 26 µM (inactive).

In the case of `CN(Cc1cccnc1)C(=O)c1cc(COc2ccc3ncccc3c2)on1`, the AC50 is > 26 µM (inactive). The value for `CC(C)CN(C(=O)COC(=O)C12CC3CC(CC(Cl)(C3)C1)C2)c1c(N)n(Cc2ccccc2)c(=O)[nH]c1=O` was > 26 µM (inactive). The value for `Nc1nc(N)c2cc(Sc3ccc4ccccc4c3)ccc2n1` was > 26 µM (inactive); that for `COc1ccc(-c2c[n+]3c4n2CCCCC4=C(c2ccc(Br)cc2)C3)cc1` was > 26 µM (inactive). The value for `Cc1ccc2nc(-c3ccc(NC(=O)c4cccnc4)cc3)oc2c1` was > 26 µM (inactive); that for `CCN(CC)CCOc1ccc2c(c1)C(=NO)c1cc(OCCN(CC)CC)ccc1-2` was 6.61 µM. Regarding `Cc1nc(C(=O)NNC(=O)c2c(-c3c(Cl)cccc3Cl)noc2C)cs1`, the AC50 was > 26 µM (inactive). On to `Cc1cc(Nc2cccc(Cl)c2)nc(NCc2ccccc2)n1`, for which the AC50 was > 26 µM (inactive). For the compound `COc1ccc(-c2nn(-c3ccccc3)cc2/C=N/N2C(=O)CSC2=S)cc1`, the AC50 is > 26 µM (inactive). The value for `COc1cccc(C(=O)Oc2c(CN3CCOCC3)cc(Cl)c3cccnc23)c1` was > 26 µM (inactive); that for `O=C1C=C(N2CCCCC2)c2ccccc2C1=O` was > 26 µM (inactive); that for `CCN1CCN(Cc2ccc(NC(=O)c3cc(NC(=O)c4cnn(-c5ccccc5)c4N)cc(OC)c3)cc2C(F)(F)F)CC1` was > 26 µM (inactive). The value for `O=C(COc1ccc2ccccc2c1)N1CCN(Cc2c[nH]c3ccccc23)CC1` was > 26 µM (inactive); that for `CC1CCN(Cc2c(C(=O)N/N=C/c3cc(Cl)ccc3O)nnn2-c2nonc2N)CC1` was > 26 µM (inactive); that for `Nc1nc(Cl)cc(N2CCC(c3cc(-c4ccc(Cl)cc4)n[nH]3)CC2)n1` was > 26 µM (inactive).

Regarding `Nc1nonc1-n1nnc(C(=O)N/N=C/c2cc(Br)ccc2O)c1CSC1=NCCS1`, the AC50 is > 26 µM (inactive).

Regarding `COc1ccc(-c2csc(NC(=O)c3ccccc3NS(=O)(=O)c3ccc(F)c(F)c3)n2)cc1`, the AC50 was > 26 µM (inactive). In the case of `O=C1C(Cl)=C(Nc2ccc3cn[nH]c3c2)C(=O)c2ccccc21`, the AC50 was > 26 µM (inactive).

For the compound `COc1cccc(/C=N/Nc2cc(N3CCOCC3)ncn2)c1O`, the AC50 is > 26 µM (inactive). Next, `CCOC(=O)c1cnc2ccc(OCC)cc2c1N1CCN(c2ccccc2)CC1`: > 12 µM (inactive); `c1ccc2c(c1)ncn2CCCOc1ccc2c(c1)CCC2`: > 26 µM (inactive). As for `COC(=O)c1nc(-c2ccc3c(n2)C(=O)C(N)=C(OC)C3=O)c(N)c(-c2ccc(OC)c(OC)c2O)c1C`, the AC50 is > 26 µM (inactive).

As for `CC(C)(C)c1cc(C(=O)N/N=C/c2ccc([N+](=O)[O-])s2)n[nH]1`, the AC50 is > 26 µM (inactive). Next, `Cn1nc([N+](=O)[O-])nc1Sc1cccc2cccnc12`: > 26 µM (inactive). Turning to `COc1ccccc1CNc1ncnc2sccc12`, the AC50 was > 26 µM (inactive).

For `CCCC(=O)NC(c1ccccc1OC)c1ccc2cccnc2c1O` (stereo not given), the AC50 is > 26 µM (inactive). The value for `O=Nc1c(O)c2ccccc2c2ccccc12` was > 26 µM (inactive). The value for `Clc1ccc(-c2cc(-c3nnc4n3CCCCC4)c3ccccc3n2)cc1` was > 26 µM (inactive). In the case of `O=C(Nc1cc(-c2ccccc2)nn1C1CCCCC1)c1ccc(Cl)cc1`, the AC50 is > 26 µM (inactive). The value for `CC(C)C[C@H]1CN=C(Nc2ccccc2)N1CCc1ccc(F)cc1` was > 12 µM (inactive); that for `O=C(Oc1c(CN2CCOCC2)cc(Cl)c2cccnc12)c1ccc(F)cc1` was > 26 µM (inactive); that for `O=C(CNc1cccc2ccccc12)N/N=C/c1ccc([N+](=O)[O-])o1` was > 26 µM (inactive).

For the compound `C/C(=N\NC(=O)c1ccc(Cl)c(Cl)c1)c1ccccn1`, the AC50 was > 26 µM (inactive). Take `CCOc1ccc(-c2cc(C(=O)NCCCn3ccnc3)c3cc(Br)ccc3n2)cc1`: the AC50 was > 12 µM (inactive). In the case of `Oc1ccc2ccccc2c1/C=N/Nc1nnc(-c2ncc[nH]2)c2ccccc12`, the AC50 is > 26 µM (inactive).

In the case of `Oc1c(N=Nc2ccccn2)ccc2ccccc12`, the AC50 was > 26 µM (inactive). The value for `CCN1/C(=C/c2ccc3cc(C)ccc3[n+]2CC)Sc2ccc3sccc3c21` was > 26 µM (inactive). The value for `Cc1ccc(S(=O)(=O)/N=C2\C=C(Nc3ccc(O)cc3)C(=O)c3ccccc32)cc1` was > 26 µM (inactive); that for `Oc1ccc(Nc2nc(N3CCCC3)c3ccccc3n2)cc1` was 8.57 µM; that for `O=C1/C(=C\c2cccnc2)CN(Cc2ccccc2)C/C1=C\c1cccnc1` was > 26 µM (inactive).

On to `COc1ccc(NC(=O)c2c(Nc3ccccc3)sc(C(=O)c3ccc(F)cc3)c2N)cc1`, for which the AC50 was > 26 µM (inactive). Turning to `FC(F)Sc1ccc(N=C2NN=C(c3ccc4c(c3)OCCO4)CS2)cc1`, the AC50 was > 26 µM (inactive). Take `COc1ccc(-n2c(-c3ccc(Br)cc3)c[n+]3c2CCCCC3)cc1`: the AC50 was > 26 µM (inactive).

For `COc1ccc(C2=Nn3c([n+](C)c4ccccc43)SC2)cc1`, the AC50 is > 26 µM (inactive). The value for `O=C(CN1CCCc2ccccc21)N/N=C/c1ccccc1O` was > 26 µM (inactive). The value for `O=[N+]([O-])c1cc(/C=N/Nc2nc3ccccc3[nH]2)c(O)cc1O` was > 26 µM (inactive); that for `Nc1nonc1-n1nnc(C(=O)N/N=C/c2cc(Br)ccc2O)c1CNc1ccccc1` was > 26 µM (inactive). Next, `CN(C1=C(NC(=O)c2ccccc2)C(=O)c2ccccc2C1=O)C1CCS(=O)(=O)C1` (stereo not given): > 26 µM (inactive). With `Oc1cccc(/C=N/Nc2ccc(Cl)nn2)c1O`, the AC50 was > 26 µM (inactive).

On to `Fc1ccc(-c2cc(-c3nnc4n3CCCCC4)c3ccccc3n2)cc1`, for which the AC50 was > 26 µM (inactive). As for `COc1cnc(-c2ccccn2)nc1Sc1ccccc1Cl`, the AC50 is > 26 µM (inactive).

`Cc1ccc(NS(=O)(=O)c2ccc(Cl)c(NC(=S)NC(=O)C3CCCCC3)c2)cc1Cl`: the AC50 was > 26 µM (inactive).

With `c1ccc2c(NCCCN3CCOCC3)c3ccccc3nc2c1`, the AC50 was 7.15 µM. In the case of `CCc1ccc(OCC(=O)NC(NC(=S)Nc2ccc(C)cc2C)C(Cl)(Cl)Cl)cc1` (stereo not given), the AC50 was > 26 µM (inactive). On to `CN(C)S(=O)(=O)c1cccc(N=C2NN=C(c3ccccc3)CS2)c1`, for which the AC50 is > 26 µM (inactive). The value for `CC(C)(C)CN1CCC(Oc2cccc(C(=O)NCCCOc3cccnc3)c2)CC1` was > 26 µM (inactive); that for `CCCCNC(=O)c1ccc(Cn2c(=S)[nH]c3c([nH]c4ccc(OC)cc43)c2=O)cc1` was > 26 µM (inactive). Next, `Cc1oc2c(c1C(=O)N1CCC(C)CC1)C(=O)c1ccccc1C2=O`: > 26 µM (inactive); `O=C(Nc1cccc(NC(=O)c2cc([N+](=O)[O-])ccc2Cl)n1)c1cc([N+](=O)[O-])ccc1Cl`: 3.73 µM; `O=[N+]([O-])c1ccc(-[n+]2ccc3ccccc3c2)c([N+](=O)[O-])c1`: > 26 µM (inactive).

Consider `O=C(c1cc(COc2ccc3ncccc3c2)on1)N1CCCCCC1`, for which the AC50 was > 26 µM (inactive). The value for `Cc1ccc(NS(=O)(=O)c2cc([N+](=O)[O-])ccc2NNC(=S)Nc2cc(C)ccc2C)c(C)c1` was > 26 µM (inactive); that for `COc1ccc2[nH]c3c(C)c4ccncc4c(C)c3c2c1` was 1.32 µM; that for `CC1(C)C(C=C(Cl)Cl)C1C(=O)Nc1ccc([N+](=O)[O-])cc1` (stereo not given) was > 26 µM (inactive). For `O=C1/C(=C/c2cccnc2)CCC/C1=C\c1cccnc1`, the AC50 is > 26 µM (inactive). Next, `CSc1ccc(S(=O)(=O)Nc2ccc(N3CCOCC3)c(Cl)c2)cc1`: > 26 µM (inactive); `O=C(N/N=C(\Cc1ncc[nH]1)c1ccccc1)c1ccncc1`: > 26 µM (inactive). The value for `CCOc1cccc(/C=N/NC(=O)c2ccc3c(c2)OCCO3)c1O` was > 26 µM (inactive).
